Experimental data: patent publication US20250177533A1, “PHOTODYNAMIC THERAPY AND DIAGNOSIS” (RMW CHO Group Limited, priority 2021, published 2025)

What was measured:
[1] = test system: Human ovarian cancer cell line SKOV3; settings: 24 h
[2] = test system: Human ovarian cancer cell line SKOV3; assay: Phototoxicity in SKOV3 cells (660 nm laser or LED, AlamarBlue viability); format: cell-based; settings: Homo sapiens, SK-OV-3, light or radiation study; SKOV3, 24 h uptake, 660 nm laser 50 mW/cm^2 for 5 mins (15 J/cm^2), viability 24 h later; read-out: Phototoxicity μM (IC90)
Text: All data are shown as mean±SD (where appropriate).
Media was then replaced with fresh media containing AlamarBlue, and % viable cells remaining assessed as above. […] All measurements were made in quadruplicate.

CCC1=C(C)c2cc3[nH]c(cc4nc(c(C)c5cc(C)c(cc1n2)[nH]5)[C@@H](CCC(=O)N(C)CCCO)[C@@H]4C)c(C)c3C(C)OCCCS[C@@H]1O[C@H](CO)[C@@H](O)[C@H](O)[C@H]1O (stereo partly drawn) [Compound 2, phyllochlorin N-3-hydroxypropyl-N-methyl propylamide propyloxythio-D-glucose]
Dark toxicity μM (IC10) [1]: 7.640 µM
IC90 [2]: 0.03 µM

CCC1=C(C)c2cc3[nH]c(cc4nc(c(C)c5cc(C)c(cc1n2)[nH]5)[C@@H](CCC(=O)OC)[C@@H]4C)c(C)c3CO [Compound 3, phyllochlorin 13-hydroxymethyl methyl ester]
Dark toxicity μM (IC10) [1]: 45.720 µM
IC90 [2]: 0.308 µM

CCC1=C(C)c2cc3[nH]c(cc4nc(c(C)c5cc(C)c(cc1n2)[nH]5)[C@@H](CCC(=O)OC)[C@@H]4C)c(C)c3CO[C@@H]1O[C@H](CO)[C@@H](O)[C@H](O)[C@H]1O [Compound 4, phyllochlorin 13-hydroxymethyl-β-D-glucoside ether methyl ester]
Dark toxicity μM (IC10) [1]: 0.775 µM
IC90 [2]: 0.099 µM

CCC1=C(C)c2cc3[nH]c(cc4nc(c(C)c5cc(C)c(cc1n2)[nH]5)[C@@H](CCC(=O)N(C)CCCO)[C@@H]4C)c(C)c3CO[C@@H]1O[C@H](CO)[C@@H](O)[C@H](O)[C@H]1O [Compound 6, phyllochlorin N-3-hydroxypropyl-N-methyl-propylamide 13-hydroxymethyl-β-D-glucoside ether]
Dark toxicity μM (IC10) [1]: 0.528 µM
IC90 [2]: 0.084 µM

CCC1=C(C)c2cc3[nH]c(cc4nc(c(C)c5cc(C)c(cc1n2)[nH]5)[C@@H](CCC(=O)OC)[C@@H]4C)c(C)c3CO[C@@H]1O[C@H](CO)[C@@H](O[C@H]2O[C@H](CO)[C@@H](O)[C@H](O)[C@H]2O)[C@H](O)[C@H]1O [Compound 8, phyllochlorin 13-hydroxymethyl-β-D-maltose ether methyl ester]
Dark toxicity μM (IC10) [1]: 7.442 µM
IC90 [2]: 0.665 µM

CCC1=C(C)c2cc3[nH]c(cc4nc(c(C)c5cc(C)c(cc1n2)[nH]5)[C@@H](CCC(=O)N(C)C[C@H](O)[C@@H](O)[C@H](O)[C@H](O)CO)[C@@H]4C)c(C)c3CO[C@@H]1O[C@H](CO)[C@@H](O)[C@H](O)[C@H]1O [Compound 10, phyllochlorin N-meglumine-propylamide-13-hydroxymethyl-β-D-glucoside ether]
Dark toxicity μM (IC10) [1]: 4.732 µM
IC90 [2]: 1.5 µM

CCC1=C(C)c2cc3[nH]c(cc4nc(c(C)c5cc(C)c(cc1n2)[nH]5)[C@@H](CCC(=O)N(C)CCCO[C@@H]1O[C@H](CO)[C@@H](O)[C@H](O)[C@H]1O)[C@@H]4C)c(C)c3CO[C@@H]1O[C@H](CO)[C@@H](O)[C@H](O)[C@H]1O [Compound 12, phyllochlorin 13-hydroxymethyl-β-D-glucoside ether-β-D-glucosyl-N-methylpropylamide]
Dark toxicity μM (IC10) [1]: 2.466 µM
IC90 [2]: 0.353 µM

CCC1=C(C)c2cc3[nH]c(cc4nc(c(C)c5cc(C)c(cc1n2)[nH]5)[C@@H](CCC(=O)N(CCOCCOCCOC)CCOCCOCCOC)[C@@H]4C)c(C)c3CO [Compound 13, phyllochlorin 13-hydroxymethyl-N,N-bis-PEG3OMe propylamide]
Dark toxicity μM (IC10) [1]: 60.750 µM
IC90 [2]: 0.421 µM

CCC1=C(C)c2cc3[nH]c(cc4nc(c(C)c5cc(C)c(cc1n2)[nH]5)[C@@H](CCC(=O)N(CCOCCOCCOC)CCOCCOCCOC)[C@@H]4C)c(C)c3CO[C@@H]1O[C@H](CO)[C@@H](O)[C@H](O)[C@H]1O [Compound 14, phyllochlorin 13-hydroxymethyl-β-D-glucoside ether-N,N-bis-PEG3OMe propylamide]
Dark toxicity μM (IC10) [1]: 0.626 µM
IC90 [2]: 0.186 µM

CCC1=C(C)c2cc3[nH]c(cc4nc(c(C)c5cc(C)c(cc1n2)[nH]5)[C@@H](CCC(=O)NCCOCCO[C@@H]1O[C@H](CO)[C@@H](O)[C@H](O)[C@H]1O)[C@@H]4C)c(C)c3CO[C@@H]1O[C@H](CO)[C@@H](O)[C@H](O)[C@H]1O [Compound 16, phyllochlorin 13-hydroxymethyl-β-D-glucoside ether-β-D-1-glucose-2-ethoxy-N-ethanamine]
Dark toxicity μM (IC10) [1]: 5.929 µM
IC90 [2]: 1.82 µM

CCC1=C(C)c2cc3[nH]c(cc4nc(c(C)c5cc(C)c(cc1n2)[nH]5)[C@@H](CCC(=O)O)[C@@H]4C)c(C)c3CO [Compound 17, phyllochlorin 13-hydroxymethyl]
Dark toxicity μM (IC10) [1]: 25.000 µM
IC90 [2]: 0.891 µM

CCC1=C(C)c2cc3[nH]c(cc4nc(c(C)c5cc(C)c(cc1n2)[nH]5)[C@@H](CCC(=O)N(C)CCCOCCC[P+](c1ccccc1)(c1ccccc1)c1ccccc1)[C@@H]4C)c(C)c3CO [Compound 18]
Dark toxicity μM (IC10) [1]: 4.393 µM
IC90 [2]: 0.007 µM

CCC1=C(C)c2cc3[nH]c(cc4nc(c(C)c5cc(C)c(cc1n2)[nH]5)[C@@H](CCC(=O)N(C)CCCOCCC[P+](c1ccccc1)(c1ccccc1)c1ccccc1)[C@@H]4C)c(C)c3CO[C@@H]1O[C@H](CO)[C@@H](O)[C@H](O)[C@H]1O [Compound 19]
Dark toxicity μM (IC10) [1]: 0.090 µM
IC90 [2]: 0.018 µM

CCC1=C(C)c2cc3[nH]c(cc4nc(c(C)c5cc(C)c(cc1n2)[nH]5)[C@@H](CCC(=O)OC)[C@@H]4C)c(C)c3C(C)OCCC[n+]1ccccc1 (some centres unmarked) [Compound 20, phyllochlorin methyl ester 3-pyridinium bromide propyl ether]
Dark toxicity μM (IC10) [1]: 1.998 µM
IC90 [2]: 0.003 µM

CCC1=C(C)c2cc3[nH]c(cc4nc(c(C)c5cc(C)c(cc1n2)[nH]5)[C@@H](CCC(=O)OC)[C@@H]4C)c(C)c3C(C)OCCOCC[n+]1ccccc1 (some centres unmarked) [Compound 22, phyllochlorin methyl ester 2-(2-pyridiniumethoxy)ethyl ether chloride]
Dark toxicity μM (IC10) [1]: 2.228 µM
IC90 [2]: 0.004 µM

CCC1=C(C)c2cc3[nH]c(cc4nc(c(C)c5cc(C)c(cc1n2)[nH]5)[C@@H](CCC(=O)OC)[C@@H]4C)c(C)c3C(C)OCCOCC[P+](c1ccccc1)(c1ccccc1)c1ccccc1 (some centres unmarked) [Compound 23, phyllochlorin methyl ester 2-(2-triphenylphosphoniumethoxy)ethyl ether chloride]
Dark toxicity μM (IC10) [1]: 3.086 µM
IC90 [2]: 0.012 µM

CCC1=C(C)c2cc3[nH]c(cc4nc(c(C)c5cc(C)c(cc1n2)[nH]5)[C@@H](CCC(=O)N(C)CCOCCOCCOCCOCCOCCOC)[C@@H]4C)c(C)c3CO [Compound 24, phyllochlorin 13-hydroxymethyl N-methyl-N-3,6,9,12,15,18-hexaoxanonadecyl propylamide]
Dark toxicity μM (IC10) [1]: 41.190 µM
IC90 [2]: 0.503 µM

CCC1=C(C)c2cc3[nH]c(cc4nc(c(C)c5cc(C)c(cc1n2)[nH]5)[C@@H](CCC(=O)N(C)CCOCCOCCOCCOCCOCCOC)[C@@H]4C)c(C)c3CO[C@@H]1O[C@H](CO)[C@@H](O)[C@H](O)[C@H]1O [Compound 25, phyllochlorin 13-hydroxymethyl-β-D-glucoside ether-β-D-glucosel-N-methyl-N-3,6,9,12,15,18-hexaoxanonadecyl propylamide]
Dark toxicity μM (IC10) [1]: 0.279 µM
IC90 [2]: 0.146 µM

CCC1=C(C)c2cc3[nH]c(cc4nc(c(C)c5cc(C)c(cc1n2)[nH]5)[C@@H](CCC(=O)N(C)CCCS[C@@H]1O[C@H](CO)[C@@H](O)[C@H](O)[C@H]1O)[C@@H]4C)c(C)c3C(C)O (stereo partly drawn) [Compound 26, 13-hydroxyethylphyllochlorin-β-D-1-thioglucose-N-methylpropylamide]
Dark toxicity μM (IC10) [1]: 21.550 µM
IC90 [2]: 0.248 µM
